The subject of one assay is rat aortic rings. Nature of the assay: Rat aortic ring angiogenesis assay. In kind it is cell-based, Sprague Dawley rats. The settings on record: day 10; for Microvessel density: control 19.5±1.8. An excerpt: The effect of chalcone or its derivatives on angiogenesis was studied by culturing aortic explants in three-dimensional matrix gels according to the procedure of Kruger and Figg (Clinical Cancer Research 7:1867-1872, 2001). Thoracic aortas were excised from 8-week-old male Sprague Dawley rats and the fibroadipose tissue was removed. The aortas were sectioned into 1-mm-long cross-sections, rinsed with Human Endothelial-SFM (GIBCO), placed on the Matrigel-coated wells, covered with additional 50 ul Matrigel, and allowed to gel for more than 30 min at 37° C., 5% CO2. All the rings were cultured in Human Endothelial-SFM (GIBCO) supplemented with 200 ug/ml of ECGS (Endothelial Cell Growth Supplement, Sigma) as an angiogenesis inducer. Chalcone diluted with ethanol was added to the culture medium at final concentrations of 1 uM and 100 uM. 1% of ethanol only was added to the culture medium as a vehicle control. All assays were performed by using 5 aortic rings per sample. Aortic rings were photographed on day 10. The area of angiogenic sprouting was calculated using Image-Pro Plus software program (Media Cybernetics). Microvessel densities are reported in percent area.

The test system of assay [1] is TPA-induced ear edema. Nature of the assay: TPA-induced ear edema model. The note with it: FIG. 7. It counts as in vivo, ICR mouse.
The subject of assay [2] is UVB-induced wrinkle formation. The assay can be described thus: Skin photoaging, UVB-induced wrinkle formation. The settings on record: topical, 15 week. It counts as in vivo, albino hairless HOS:HR1 mice. An excerpt:
Effects of chalcone on skin photoaging were studied using mouse skin wrinkle induced by UV irradiation. 6-week male albino hairless HOS:HR1 mice were used for wrinkle formation induced by long-term repeated UVB irradiation. Wrinkles were formed according to the modified method described by Bissett et al (Photochem Photobiol 46: 367-378, 1987) The dose was set at 60 mJ per cm^2 for 4 weeks and increased to 120 mJ per cm^2 for 11 weeks. The frequency of irradiation was set at three times per week. In this protocol, wrinkles began to be observed macroscopically in the dorsal region from about 8 week after initiation of irradiation, and deep wrinkles were formed at 12 week. 30 hairless mice were divided into three groups, and only one of ethanol-propylene glycol (7:3) (control), 1% chalcone in ethanol-propylene glycol (7:3), or 5% chalcone in ethanol-propylene glycol (7:3) was applied on each groups for 15 weeks. 100 μl of the experimental agent was applied to the dorsal region three times weekly just after UVB exposure. At 15 week after initiation of repeated UVB irradiation, each hairless mouse was anesthetized, and the degree of wrinkle formation was evaluated according to Table 3. […] [table]

The subject of assay [3] is TPA-induced ear edema. Nature of the assay: TPA-induced ear edema model. It counts as in vivo, ICR mouse. The procedure:
To observe the anti-inflammatory effects of chalcone or its derivatives edema was induced in the ear by topical application of 10 ul of TPA (Tetradecanoylphorbol acetate) in acetone (2.5 ug/ear) to both the inner and outer surface of one ear of each 6-week-old ICR mouse. 5% of Chalcone or its derivatives diluted with acetone were applied separately to each ear topically immediately after TPA. The reference drug, indomethacin (0.5 mg/ear), was administered as a positive control. Ear thickness was measured before and 4 hours after treatment with the irritant using a micrometer (Mitutoyo Co.). Ear thickness was expressed as the mean of the difference between thickness before and after challenge. Inhibition ratio percentage of edema was expressed as the reduction in thickness with respect to the control treated only with TPA. As shown in FIG. 6 and Table 2, chalcone or its derivatives suppressed the TPA-induced ear edema.

Molecules are shown by their SMILES.

In general, inhibition refers to the percentage by which the read-out fell short of the control.

As to `O=C(/C=C/c1ccccc1)c1ccccc1` [Chalcone], the Microvessel density in the assay on rat aortic rings (1 uM) is listed as 18.5±1.2 percent area; in the assay on rat aortic rings (100 uM), 1.7±0.1 percent area. Moreover, the inhibition at 1 µM in the assay on rat aortic rings (Rattus norvegicus, 240 h, 1 uM, read-out: Inhibition of microvessel formation compared to control) is 5.1%. Moreover, the inhibition at 100 µM in the assay on rat aortic rings (Rattus norvegicus, 240 h, 100 uM, read-out: Inhibition of microvessel formation compared to control) was 91.3%. Also, in the assay on TPA-induced ear edema [1], the “Dose dependence of anti-inflammatory activity” value is on record as “dose dependent”. Also, the “UVB-induced wrinkle formation vs vehicle-treated group” value in assay [2] (1% chalcone in ethanol-propylene glycol (7:3)) and in assay [2] (5% chalcone in ethanol-propylene glycol (7:3)) was “significantly inhibited” throughout. In addition, the “Inhibition ratio (%) of ear edema” value with TPA-induced ear edema [3] (topical 5% in acetone (indomethacin 0.5 mg/ear), 4 hours after TPA) was 69.3%. Also, the “Δ Ear thickness (um ± S.D)” value with TPA-induced ear edema [3] (topical 5% in acetone (indomethacin 0.5 mg/ear), 4 hours after TPA, TPA control 176 ± 35) is 54 ± 22 um. Besides, in the assay on TPA-induced ear edema [3] (topical 5%, TPA-induced ear edema), the “Relative potency among chalcone or its derivatives on ear edema” value was “greatest potency”.

Values taken from US7572831B2, “Composition containing chalcone” (Angiolab, Inc., priority 2002, dated 2009).
